Values after ≈ are worked out from the molar mass of the structure shown.
Tests used:
tumor = experiment: Antitumor activity compared with fangchinoline, overall statement; format: cell-based; settings: tumor type not specified
[1] = tested on: Becap-37 (human breast cancer) cells; experiment: MTT cell growth inhibition, solid tumor cells; format: cell-based
How it was run: (§1)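 Exposure lasted 72 h, following 24 h growth of 6000 cells/well in DMEM high glucose containing 10% FBS at 37 °C in 5% CO2; endpoint was MTT-based viable cell concentration across tested compound concentrations.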

[2] = tested on: MG-63 (osteosarcoma) cells; experiment: MTT cell growth inhibition, solid tumor cells; format: cell-based; settings: Homo sapiens, MG-63, 72 h, MTT
How it was run: as §1

[3] = tested on: Hep-2 (laryngeal carcinoma) cells; experiment: MTT cell growth inhibition, solid tumor cells; format: cell-based; settings: Homo sapiens, Hep-2, 72 h, MTT
How it was run: as §1

[4] = tested on: A549 (human lung cancer) cells; experiment: MTT cell growth inhibition, solid tumor cells; format: cell-based; settings: Homo sapiens, A549, 72 h, MTT
How it was run: as §1

[5] = tested on: Hep G2 (human liver cancer) cells; experiment: MTT cell growth inhibition, solid tumor cells; format: cell-based
How it was run: as §1

[6] = tested on: MGC-803 (human gastric cancer) cells; experiment: MTT cell growth inhibition, solid tumor cells; format: cell-based; settings: MGC-803, 72 h, MTT
How it was run: as §1

[7] = tested on: RKO (human colon adenocarcinoma) cells; experiment: MTT cell growth inhibition, solid tumor cells; format: cell-based
How it was run: as §1

[8] = tested on: U87-MG (malignant glioma) cells; experiment: MTT cell growth inhibition, solid tumor cells; format: cell-based; settings: Homo sapiens, U-87 MG, U87-MG, 72 h, MTT
How it was run: as §1

[9] = tested on: Hela (human cervical cancer) cells; experiment: MTT cell growth inhibition, solid tumor cells; format: cell-based; settings: Homo sapiens, Hela, 72 h, MTT
How it was run: as §1

[10] = tested on: H9 (acute lymphoblastic leukemia) cells; experiment: MTT cell growth inhibition, leukemia cells; format: cell-based, human; settings: Homo sapiens, H9, 72 h, MTT
How it was run: (§2)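 Growth inhibition is assessed by MTT after leukemia cells, plated at 6000 per well in RPMI-1640 containing 10% fetal bovine serum, are exposed for 72 hours to graded compound concentrations added the day after plating.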

[11] = tested on: Kasumi-1 (acute myeloid leukemia M2 type) cells; experiment: MTT cell growth inhibition, leukemia cells; format: cell-based, human; settings: Homo sapiens, Kasumi-1, 72 h, MTT
How it was run: as §2

[12] = tested on: Jurkat (acute lymphoblastic leukemia) cells; experiment: MTT cell growth inhibition, leukemia cells; format: cell-based, human; settings: Homo sapiens, Jurkat, 72 h, MTT
How it was run: as §2

[13] = tested on: K562/ADR (K562adr, drug-resistant chronic myeloid leukemia) cells; experiment: MTT cell growth inhibition, leukemia cells; format: cell-based; settings: Homo sapiens, K562/ADR, 72 h, MTT
How it was run: as §2

[14] = tested on: NB4 (acute promyelocytic leukemia) cells; experiment: MTT cell growth inhibition, leukemia cells; format: cell-based; settings: Homo sapiens, NB4, 72 h, MTT
How it was run: as §2

[15] = tested on: CNE (nasopharyngeal carcinoma) cells; experiment: MTT cell growth inhibition, solid tumor cells; format: cell-based, human
How it was run: as §1

[16] = tested on: CaEs-17 (esophageal cancer) cells; experiment: MTT cell growth inhibition, solid tumor cells; format: cell-based, human
How it was run: as §1

[17] = tested on: PANC-1 (pancreatic cancer) cells; experiment: MTT cell growth inhibition, solid tumor cells; format: cell-based, human
How it was run: as §1

[18] = tested on: SK-OV-3 (ovarian cancer) cells; experiment: MTT cell growth inhibition, solid tumor cells; format: cell-based, human
How it was run: as §1

[19] = tested on: PC-3 (prostate cancer) cells; experiment: MTT cell growth inhibition, solid tumor cells; format: cell-based, human
How it was run: as §1

[20] = relative to fangchinoline, Table 2

`COc1ccc2cc1Oc1ccc(cc1)C[C@H]1c3cc(c(OC)cc3CCN1C)Oc1c(OCC(O)CN3CCCCC3)c(OC)cc3c1[C@H](C2)N(C)CC3` (some centres unmarked) [BS-FC-403] was tested, and the “antitumor activity compared with that of fangchinoline” value (tumor) was “significantly superior”, the IC50 ([1]; Homo sapiens, Becap-37, 72 h, MTT, read-out: IC50) was 0.59 µg/mL (≈ 0.787 µM) and the IC90 ([1]; Homo sapiens, Becap-37, 72 h, MTT, read-out: IC90) was 2.09 µg/mL (≈ 2.79 µM). The “anti-Becap37 activity increase over fangchinoline” value [1, 20] was ~3 fold, the IC50 ([2]; read-out: IC50) was 0.6 µg/mL (≈ 0.8 µM) and the IC90 ([2]; read-out: IC90) was 1.3 µg/mL (≈ 1.73 µM). For the same compound, the IC50 ([3]; read-out: IC50) was 1.76 µg/mL (≈ 2.35 µM), the IC90 ([3]; read-out: IC90) was 5.66 µg/mL (≈ 7.55 µM) and the IC50 ([4]; read-out: IC50) was 1.84 µg/mL (≈ 2.45 µM). The IC90 ([4]; read-out: IC90) was 6.34 µg/mL (≈ 8.45 µM), the IC50 ([5]; Homo sapiens, HepG2, Hep G2, 72 h, MTT, read-out: IC50) was 0.55 µg/mL (≈ 0.733 µM) and the IC90 ([5]; Homo sapiens, HepG2, Hep G2, 72 h, MTT, read-out: IC90) was 2.23 µg/mL (≈ 2.97 µM). For the same compound, the “anti-Hep G2 activity increase over fangchinoline” value [5, 20] was ~3 fold, the IC50 ([6]; read-out: IC50) was 0.4 µg/mL (≈ 0.533 µM) and the IC90 ([6]; read-out: IC90) was 4.14 µg/mL (≈ 5.52 µM). The IC50 ([7]; Homo sapiens, RKO, 72 h, MTT, read-out: IC50) was 0.34 µg/mL (≈ 0.453 µM), the IC90 ([7]; Homo sapiens, RKO, 72 h, MTT, read-out: IC90) was 0.79 µg/mL (≈ 1.05 µM) and the “anti-RKO activity increase over fangchinoline” value [7, 20] was ~3 fold. It also gave an IC50 ([8]; read-out: IC50) of 0.71 µg/mL (≈ 0.947 µM), an IC90 ([8]; read-out: IC90) of 1.73 µg/mL (≈ 2.31 µM) and an IC50 ([9]; read-out: IC50) of 0.9 µg/mL (≈ 1.2 µM). The IC90 ([9]; read-out: IC90) was 2.96 µg/mL (≈ 3.95 µM), the IC50 ([10]; read-out: IC50) was 0.88 µg/mL (≈ 1.17 µM) and the IC90 ([10]; read-out: IC90) was 1.9 µg/mL (≈ 2.53 µM). The IC50 ([11]; read-out: IC50) was 0.88 µg/mL (≈ 1.17 µM), the IC90 ([11]; read-out: IC90) was 2 µg/mL (≈ 2.67 µM) and the IC50 ([12]; read-out: IC50) was 0.58 µg/mL (≈ 0.773 µM). It also gave an IC90 ([12]; read-out: IC90) of 0.96 µg/mL (≈ 1.28 µM), an IC50 ([13]; read-out: IC50) of 0.05 µg/mL (≈ 0.0667 µM) and an IC90 ([13]; read-out: IC90) of 0.83 µg/mL (≈ 1.11 µM). For the same compound, the IC50 ([14]; read-out: IC50) was 0.3 µg/mL (≈ 0.4 µM), the IC90 ([14]; read-out: IC90) was 0.78 µg/mL (≈ 1.04 µM) and the IC50 ([15]; Homo sapiens, CNE, 72 h, MTT, read-out: IC50) was 0.87 µg/mL (≈ 1.16 µM). For the same compound, the IC90 ([15]; Homo sapiens, CNE, 72 h, MTT, read-out: IC90) was 2.2 µg/mL (≈ 2.93 µM), the “anti-CNE activity increase over fangchinoline” value [15, 20] was ~3 fold and the IC50 ([16]; Homo sapiens, CaEs17, CaEs-17, 72 h, MTT, read-out: IC50) was 0.43 µg/mL (≈ 0.573 µM). For the same compound, the IC90 ([16]; Homo sapiens, CaEs17, CaEs-17, 72 h, MTT, read-out: IC90) was 1.99 µg/mL (≈ 2.65 µM), the “anti-CaEs-17 activity increase over fangchinoline” value [16, 20] was ~4 fold and the IC50 ([17]; Homo sapiens, PANC-1, 72 h, MTT, read-out: IC50) was 1.03 µg/mL (≈ 1.37 µM). For the same compound, the IC90 ([17]; Homo sapiens, PANC-1, 72 h, MTT, read-out: IC90) was 3.17 µg/mL (≈ 4.23 µM), the “anti-PANC-1 activity increase over fangchinoline” value [17, 20] was ~3 fold and the IC50 ([18]; Homo sapiens, SK-OV-3, 72 h, MTT, read-out: IC50) was 1.03 µg/mL (≈ 1.37 µM). The IC90 ([18]; Homo sapiens, SK-OV-3, 72 h, MTT, read-out: IC90) was 3.85 µg/mL (≈ 5.13 µM), the “anti-SK-OV-3 activity increase over fangchinoline” value [18, 20] was ~3 fold and the IC50 ([19]; Homo sapiens, PC-3, 72 h, MTT, read-out: IC50) was 1.49 µg/mL (≈ 1.99 µM). For the same compound, the IC90 ([19]; Homo sapiens, PC-3, 72 h, MTT, read-out: IC90) was 3.96 µg/mL (≈ 5.28 µM) and the “anti-PC-3 activity increase over fangchinoline” value [19, 20] was ~3 fold.

Reference: US9328122B2, “7-substituted Hanfangichin B derivative, and preparation method and use thereof” (HANGZHOU BENSHENG PHARMACEUTICAL CO., LTD., priority 2012, dated 2016)
